# From PubChem BioAssay AID1918935 (Molecular Pharmacology Branch, DTP, NCI, 2023)
# Where “and” joins values, the source holds several entries; their conditions need not be identical. Equal values may be shown once.
# Tested on: 324938-238-R-J1-PDC complex spheroid viability
# Assay: Anticancer human tumor 324938-238-R-J1-PDC patient-derived bladder carcinoma cell line growth inhibition
# Conditions: for viability, T/C: stronger effect = lower value
# From the text: Multicellular complex tumor spheroid response to LSD1 Inhibitor Iadademstat in combination with a variety of drugs and investigational agents in selected tumor cell lines
# The current study was undertaken to assess response to LSD1 inhibitors in combination with standard-of-care drugs and investigational agents in solid tumor complex spheroid models as well as in the K-562 leukemia. Complex spheroids include a stromal component modeled by human endothelial cells (HUVEC) and fibroblasts modeled by human mesenchymal stem cells (MSCs). The concentration ranges selected for each drug and investigational agent were based upon clinically achievable concentrations if the clinical Cmax of the agent was known.
# Compounds. The drugs and investigational agents used in this study are listed on Table 1. All of the agents used, including staurosporine (NSC755774) and gemcitabine (NSC613327), were obtained from the Developmental Therapeutics Program, NCI. FDA-approved anticancer drugs are available from the NCI at http://dtp.nci.nih.gov/branches/dscb/oncology_drugset_explanation.html. Drugs and investigational agents were >95% pure by proton nuclear magnetic resonance (NMR) and liquid chromatography/mass spectrometry (LC/MS). Stock solutions were prepared at 400x in DMSO, stored at -70 degrees C, and diluted in fresh medium prior to their use. The final concentration of DMSO in cell culture wells never exceeded 0.25% (v/v). The FDA-approved anticancer drug set is available from the Developmental Therapeutics Program at https://dtp.cancer.gov/organization/dscb/obtaining/available_plates.htm. All drugs and investigational agents were tested over a range starting from a high concentration at or near the clinical Cmax and decreasing in half-log increments. If the clinical Cmax for an agent had not been determined, the highest concentration tested was 10 microM.
# Cell Lines. The patient-derived cancer cell (PDC) lines: 292921-168-R-J2-PDC, K24384-001-R-PDC, and 521955-158-R2-J5-PDC pancreatic carcinomas, 556581-035-R-J1 ovarian carcinoma, 324938-238-R-J1-PDC, 855422-203-R-J1-PDC and 883617-216-R-J1-PDC urothelial bladder carcinomas, 743489-274-T-PDC renal cell carcinoma, 138582-R-J1 Merkel cell tumor, K60290-347-R-J1 and K57222-313-R-J1-PDC glioblastomas, 653999-131-R-J2-PDC, LG0703-F948-PDC, and 349418-098-R-PDC non-small cell lung carcinomas, 885512-296-R-J2-PDC, 171881-019-R-J1-PDC breast carcinomas and 186277-243-T-J2-PDC and 233499-124-R-J2-PDC colon carcinomas were obtained from the NCI Patient-Derived Models Repository (PDMR, https://pdmr.cancer.gov). The established cell lines NCI/ADR-RES (RRID:CVCL_14520 and OVCAR-5 (RRID:CVCL_1628) ovarian carcinomas, 786-O (RRID:CVCL_1051) and A498 (RRID:CVCL_A498) renal cell carcinoma, NCI-H211 (ATCC, cat. CRL-5824; RRID:CVCL_1529), NCI-H196 (ATCC, cat. CRL-5823, RRID:CVCL_1509), SW 1271 (ATCC, cat. CRL-2177, RRID:CVCL_1716) and NCI-H1876 (ATCC, cat. CRL-5902, RRID:CVCL_1503) small cell lung carcinomas, MDA-MB-231 (RRID:CVCL_0062) and MDA-MB-468 (RRID:CVCL_0419)breast carcinomas (10-12). Pooled donor human umbilical vein endothelial cells (HUVEC, Lonza, cat. CC-2519) and human mesenchymal stem cells (hMSC, Lonza, cat. PT-2501) were purchased from Lonza (Walkersville, MD).
# Cell Culture. All cells were maintained in an incubator at 37 degrees C and 5% CO2 with 95% humidity. The PDC lines were cultured according to standard operating procedures established by the NCI PDMR (https://pdmr.cancer.gov). Briefly all PDCs were thawed and cultured in Matrigel-coated flasks prepared with a working solution of 1X Ham's F-12 nutrient mix, without supplementation (Invitrogen, Waltham, MA, cat. 11765054), 100 U/mL penicillin-streptomycin (Invitrogen, cat. 15140122), and 2.5% Matrigel (Corning Inc., Corning, NY, cat. 354248) for the first three passages. […]
# 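Note: spheroids also contain HUVEC and human MSCs and agents combined with iadademstat; spheroids exposed to agents for 7 days before readout.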
compound,measurement,setting,value
COc1cc(C2c3cc4c(cc3C(OC3OC5COC(C)OC5C(O)C3O)C3COC(=O)C23)OCO4)cc(OC)c1O (centres undefined) + NC1CCC(NC2CC2c2ccccc2)CC1,IC50,"curve of first compound, second compound 0.1 µM",0.0567 µM
same,IC50,"curve of first compound, second compound 0.316 µM",0.0548 µM
same,IC50,"curve of first compound, second compound 1 µM",0.0513 µM
same,IC50,"curve of first compound, second compound 3.16 µM",0.0547 µM
same,IC50,"curve of first compound, second compound 10 µM",0.0833 µM
same,"viability, T/C","second compound 0.1 µM, first compound 0.00949 µM",83.9%
same,"viability, T/C","second compound 0.1 µM, first compound 0.03 µM",67%
same,"viability, T/C","second compound 0.1 µM, first compound 0.0949 µM",35.3%
same,"viability, T/C","second compound 0.1 µM, first compound 0.3 µM",22.2%
same,"viability, T/C","second compound 0.1 µM, first compound 0.949 µM",21.9%
same,"viability, T/C","second compound 0.1 µM, first compound 3 µM",9.11%
same,"viability, T/C","second compound 0.316 µM, first compound 0.00949 µM",84.9%
same,"viability, T/C","second compound 0.316 µM, first compound 0.03 µM",64.9%
same,"viability, T/C","second compound 0.316 µM, first compound 0.0949 µM",35.3%
same,"viability, T/C","second compound 0.316 µM, first compound 0.3 µM",23.4%
same,"viability, T/C","second compound 0.316 µM, first compound 0.949 µM",19%
same,"viability, T/C","second compound 0.316 µM, first compound 3 µM",10%
same,"viability, T/C","second compound 1 µM, first compound 0.00949 µM",76.4%
same,"viability, T/C","second compound 1 µM, first compound 0.03 µM",61.6%
same,"viability, T/C","second compound 1 µM, first compound 0.0949 µM",36.8%
same,"viability, T/C","second compound 1 µM, first compound 0.3 µM",22.6%
same,"viability, T/C","second compound 1 µM, first compound 0.949 µM",22.1%
same,"viability, T/C","second compound 1 µM, first compound 3 µM",10.1%
same,"viability, T/C","second compound 3.16 µM, first compound 0.00949 µM",71.8%
same,"viability, T/C","second compound 3.16 µM, first compound 0.03 µM",64%
same,"viability, T/C","second compound 3.16 µM, first compound 0.0949 µM",36.1%
same,"viability, T/C","second compound 3.16 µM, first compound 0.3 µM",27.1%
same,"viability, T/C","second compound 3.16 µM, first compound 0.949 µM",21.3%
same,"viability, T/C","second compound 3.16 µM, first compound 3 µM",12.1%
same,"viability, T/C","second compound 10 µM, first compound 0.00949 µM",67.4%
same,"viability, T/C","second compound 10 µM, first compound 0.03 µM",67.9%
same,"viability, T/C","second compound 10 µM, first compound 0.0949 µM",47.1%
same,"viability, T/C","second compound 10 µM, first compound 0.3 µM",23.8%
same,"viability, T/C","second compound 10 µM, first compound 0.949 µM",18.6%
same,"viability, T/C","second compound 10 µM, first compound 3 µM",13.2%
O=C(c1cc(Cc2n[nH]c(=O)c3ccccc23)ccc1F)N1CCN(C(=O)C2CC2)CC1,"viability, T/C",compound 0.0316 µM,100% and 104%
same,"viability, T/C",compound 0.1 µM,100% and 104%
same,"viability, T/C",compound 0.316 µM,107% and 96.3%
same,"viability, T/C",compound 1 µM,87.4% and 80.7%
same,"viability, T/C",compound 3.16 µM,64.5% and 48.9%
same,"viability, T/C",compound 10 µM,40.4% and 31.9%
same,IC50,curve of compound,6.26 µM and 3.09 µM
Nc1ccn(C2OC(CO)C(O)C2(F)F)c(=O)n1 (centres undefined),"viability, T/C",compound 0.000949 µM,11.4% and 15.4%
same,"viability, T/C",compound 0.003 µM,8.21% and 9.09%
same,"viability, T/C",compound 0.00949 µM,7.58% and 8.65%
same,"viability, T/C",compound 0.03 µM,6.97% and 8.11%
same,"viability, T/C",compound 0.0949 µM,5.95% and 6.14%
same,"viability, T/C",compound 0.3 µM,5.04% and 6.97%
same,IC50,curve of compound,< 0.000949 µM
